Experiments:
[1] = tested on: LLC tumors; assay: In vivo panning of T7 phage peptide library: phage recovered from irradiated LLC tumors; design: species or system mice
Protocol: (§1) GL261 murine glioma cells and Lewis lung carcinoma (LLC) cells were implanted into the hind limb of C57BL/6 mice (see Hallahan et al., 1995b; Hallahan et al., 1998; Hallahan & Virudachalam, 1999).
(§2) For in vivo panning, tumors were irradiated with 3 Gy and approximately 10^10 phage (prepared as described in Example 1) were administered by tail vein injection into each of the tumor bearing mice at 4 hours following irradiation. Tumors were recovered at one hour following injection and amplified in BL21 bacteria. Amplified phage were pooled and re-administered to a tumor-bearing mouse following tumor irradiation. The phage pool was sequentially administered to a total of 6 animals. As a control, wild type phage lacking synthetic peptide inserts were identically administered to a second experimental group of animals.
(§3) To determine the titer of phage binding in a tumor or in normal tissue, recovered phage were amplified in BL21 bacteria. Bacteria were plated and the number of plaques present was counted. To determine the total phage output per organ, the number of plaque forming units (PFU) on each plate was divided by the volume of phage plated and the weight of each organ. Normal variation was observed as a 2-fold difference in PFU. In the present Example, background binding within tumor blood vessels was approximately 10^4 phage. Phage that bound to the vasculature within irradiated tumors show enrichment in the tumor relative to other organs and enrichment in the irradiated tumor relative to the control phage without DNA insert.
(§4) Following six rounds of in vivo panning, fifty recombinant phage peptides that bound within irradiated tumors were randomly selected for further analysis. The nucleic acid sequence encoding recombinant phage was amplified by PCR using primers set forth as SEQ ID NOs: 20-21 (available from Novagen Brand, a unit of EMD Biosciences, Inc., Madison, Wis.). An individual phage suspension was used as template. Amplified peptides were sequenced using an ABI PRISM® 377 sequencer (Applied Biosystems of Foster City, Calif., United States of America).

[2] = tested on: D54 and LLC tumors; assay: Imaging of Alexfluor 750-conjugated peptide in responding and non-responding tumors; format: in vivo, nude mice
Protocol: D54 and LLC tumors were implanted into both hind limbs of nude mice as described in Example 2. Tumors were grown over the course of seven to 10 days.
At 24 hours following drug administration, mice were injected with Alexfluor 750-conjugated HVGGSSV (SEQ ID NO: 1) peptide through a jugular catheter.

[3] = tested on: B16F0 melanoma, lung carcinoma and glioma tumor models; assay: Binding of phage-encoded peptides in additional tumor models; format: in vivo; conditions: phage encoding the peptide
Description: The binding properties of phage encoding HVGGSSV (SEQ ID NO: 1), […] (SEQ ID NO: 2), […] (SEQ ID NO: 3), and SVGSRV (SEQ ID NO: 4) were additionally characterized in a B16F0 melanoma model.

[4] = tested on: tumor vascular endothelium; assay: Histochemistry of tumor sections after biotinylated peptide; format: in vivo; conditions: 24 hours after administration
Protocol: To determine whether peptide binds to endothelium or blood components, tumors were sectioned at 24 hours following administration of biotinylated HVGGSSV (SEQ ID NO: 1) peptide. Tumor sections were then stained with strepavidin conjugates for histochemistry.

[5] = tested on: GL261 tumors; assay: In vivo panning of T7 phage peptide library: phage recovered from irradiated GL261 tumors; design: species or system mice; conditions: Experiment A, 3 Gy; for Phage Recovered from GL261 tumors: number of sequenced phage after six rounds; for Phage Recovered from GL261 tumors (Frequency): six rounds
Protocol: as §1, §2, §3, §4

[6] = tested on: responding tumor; assay: Near infrared imaging of Cy7-labeled phage peptide in tumor-bearing mice; format: in vivo, mouse
Protocol: To determine the feasibility of imaging phage peptides binding within tumors, a Xenogen imaging system (Xenogen Corp., Alameda, Calif., United States of America) and near infrared imaging of Cy7-labeled recombinant peptides selected from phage libraries was employed. In order to examine the binding of recombinant phage peptides to responding tumors, preliminary experiments were performed to test the background binding of negative control phage in tumor-bearing animals. The […] was labeled with Cy7 and injected by tail vein into a mouse bearing tumors in both hind limbs. […] The time course of labeled negative control phage circulating throughout the animal over 6 hours was determined. At 1 hour post-injection via the tail vein, Cy7-labeled phage was distributed throughout the entire animal. At 6 hours after tail vein injection, clearance through the kidneys was observed.

[7] = tested on: treated tumors; assay: Kinetics of Cy 7 conjugated peptide binding to treated tumors, daily imaging; format: in vivo, mouse; conditions: Cy 7 conjugate
Protocol: To study the kinetics of peptide binding to treated tumors, animals were imaged daily following administration of Cy 7 conjugated HVGGSSV (SEQ ID NO: 1) peptide. […] At 40 hours, the peptide was excreted by the kidneys. Tumors were located in the left hind limb.

[8] = target: T1, α2bβ3 receptor (Mus musculus, UniProt O54890+Q9QUM0); assay: Phage binding in irradiated tumors with blocking antibody, plaque formation; format: in vivo; conditions: phage encoding the peptide on the capsid protein
T1 construct: from tissue; host or cells: irradiated tumours (tumour vasculature / blood components) in living mice
T1 sequence (Q9QUM0 32-1033): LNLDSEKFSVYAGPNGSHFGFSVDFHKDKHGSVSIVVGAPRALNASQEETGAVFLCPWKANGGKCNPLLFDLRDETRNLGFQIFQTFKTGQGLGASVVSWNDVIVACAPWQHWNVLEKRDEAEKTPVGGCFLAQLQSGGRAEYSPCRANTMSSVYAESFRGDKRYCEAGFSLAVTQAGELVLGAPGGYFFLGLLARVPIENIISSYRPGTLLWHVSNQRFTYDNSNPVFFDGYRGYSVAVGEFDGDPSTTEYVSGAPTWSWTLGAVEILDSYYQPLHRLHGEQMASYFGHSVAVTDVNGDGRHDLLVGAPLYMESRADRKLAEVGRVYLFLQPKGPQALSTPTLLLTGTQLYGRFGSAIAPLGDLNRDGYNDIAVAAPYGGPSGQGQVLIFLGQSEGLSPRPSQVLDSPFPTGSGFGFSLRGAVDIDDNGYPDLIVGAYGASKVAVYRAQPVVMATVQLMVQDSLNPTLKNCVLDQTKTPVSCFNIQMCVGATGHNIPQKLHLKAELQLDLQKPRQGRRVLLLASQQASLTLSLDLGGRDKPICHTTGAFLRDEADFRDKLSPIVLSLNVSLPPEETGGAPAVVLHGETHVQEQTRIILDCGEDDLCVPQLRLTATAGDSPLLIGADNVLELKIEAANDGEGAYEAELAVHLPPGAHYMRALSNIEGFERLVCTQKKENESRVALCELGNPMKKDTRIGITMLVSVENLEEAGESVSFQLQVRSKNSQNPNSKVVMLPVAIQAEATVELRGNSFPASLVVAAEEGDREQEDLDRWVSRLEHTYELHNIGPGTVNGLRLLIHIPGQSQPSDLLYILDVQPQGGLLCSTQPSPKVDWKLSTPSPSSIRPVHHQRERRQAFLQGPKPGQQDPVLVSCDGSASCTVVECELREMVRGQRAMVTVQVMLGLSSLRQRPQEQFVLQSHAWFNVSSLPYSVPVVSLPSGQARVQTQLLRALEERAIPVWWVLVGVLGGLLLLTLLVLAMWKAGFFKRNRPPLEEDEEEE
T1 sequence (O54890 26-787): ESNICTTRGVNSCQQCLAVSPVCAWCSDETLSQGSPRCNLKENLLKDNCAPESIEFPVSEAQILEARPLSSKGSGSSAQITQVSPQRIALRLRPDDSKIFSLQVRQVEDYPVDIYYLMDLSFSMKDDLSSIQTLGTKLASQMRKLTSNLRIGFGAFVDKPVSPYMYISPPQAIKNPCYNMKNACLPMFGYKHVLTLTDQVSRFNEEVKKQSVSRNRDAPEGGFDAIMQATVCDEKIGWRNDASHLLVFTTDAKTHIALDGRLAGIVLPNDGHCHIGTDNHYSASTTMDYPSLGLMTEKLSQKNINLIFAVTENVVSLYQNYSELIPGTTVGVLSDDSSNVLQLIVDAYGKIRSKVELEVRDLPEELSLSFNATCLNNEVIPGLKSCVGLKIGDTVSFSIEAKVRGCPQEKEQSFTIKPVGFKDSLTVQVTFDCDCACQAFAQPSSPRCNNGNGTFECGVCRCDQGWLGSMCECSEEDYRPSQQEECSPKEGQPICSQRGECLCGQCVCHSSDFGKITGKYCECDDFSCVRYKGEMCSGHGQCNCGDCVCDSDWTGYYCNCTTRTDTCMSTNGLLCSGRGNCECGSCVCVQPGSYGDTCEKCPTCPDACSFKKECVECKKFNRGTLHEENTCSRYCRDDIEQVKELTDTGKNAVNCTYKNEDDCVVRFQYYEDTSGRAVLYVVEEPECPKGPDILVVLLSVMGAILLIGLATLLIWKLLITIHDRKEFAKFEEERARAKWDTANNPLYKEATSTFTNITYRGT
Protocol: An anti-α2bβ3 monoclonal antibody was administered by tail vein to determine whether this receptor is required for recombinant phage binding in irradiated tumors. Phage encoding […] (SEQ ID NO: 2) on the capsid protein were injected immediately after blocking antibody or control antibody. Phage were recovered from the tumor and controls organs and quantified by plaque formation. Radiation induced a 4-fold increase in phage binding in tumor. […] Thus, the tumor binding activity of targeting peptide […] (SEQ ID NO: 2) is dependent on its interaction with the α2bβ3 receptor.

[9] = tested on: LLC tumors; assay: 131I-labeled peptide binding in hind limb LLC tumors, well counts; format: in vivo, mice
Protocol: Recombinant peptide and ligand binding to the α2bβ3 integrin is dose dependent, with a threshold dose of 6 Gy and maximal binding at 10 Gy. This is the dose range for induction of apoptosis within tumor endothelium (Garcia-Barros & Kolesnick, 2003). […] To determine whether recombinant peptides bind within tumors following this combined therapy, the recombinant peptide […] (SEQ ID NO: 2) was employed. […] Tumors were resected and counts per minute (CPM) were measured by well counts.

[10] = Experiment A, number of sequenced phage after six rounds, 3 Gy

Q: What does the source list for “HVGGSSV (Peptide that binds to LLC and/or GL261 tumors) [peptide isolated by in vivo panning of a phage library]”?
A: Phage Recovered from LLC tumors [1, 10]: 7; Phage Recovered from LLC tumors (Frequency) ([1]; Experiment A, six rounds, 3 Gy): (28%); Labeled peptide binding in tumor ([2]; Alexfluor 750 conjugate, tumor treated with SU11248 and radiation, 24 hours after drug): Intense peptide binding; Uptake in tumors treated with SU11248 alone compared to untreated tumors ([2]; responding versus non-responding tumors): differentially bound to tumors that responded to SU11248 therapy; Labeled peptide binding in tumor ([2]; tumors not responding to therapy, SU11248 alone): no increase in peptide binding; Tumor models within which the phage-encoded peptide bound [3]: bound within the melanoma, lung carcinoma, and glioma tumor models; Binding within the intravascular blood components [4]: minimal or no binding; Site of peptide binding in tumor sections ([4]; streptavidin histochemistry): bound primarily to tumor vascular endothelium; Phage Recovered from GL261 tumors [5]: 12; Phage Recovered from GL261 tumors (Frequency) [5]: (48%); Binding of Cy7-labeled phage peptide in treated tumor ([6]; SU11248 and 3 Gy to right hind limb tumor): bound within the responding tumor; Binding of Cy7-labeled phage peptide in tumors ([6]; mouse treated with SU11248 40 mg/kg, one hind limb tumor 3 Gy 24 hours prior to imaging): observed in the responding tumor but not an non-responding tumor; Phage binding in negative control tumor ([6]; no SU11248 or radiation, 24 hours after tail vein injection): minimal phage binding; Time at which peptide was excreted by the kidneys [7]: 40 h; Time over which peptide circulated throughout the mouse [7]: 28 h; Time over which peptide remained bound to the tumor [7]: 162 h

Q: How did the “Phage Recovered from LLC tumors” value [1, 10] turn out when “SLRGDGSSV (Peptide that binds to LLC and/or GL261 tumors) [peptide isolated by in vivo panning]” was run?
A: Its value is 7.

Q: And the “Phage Recovered from LLC tumors (Frequency)” value ([1]; Experiment A, six rounds, 3 Gy)?
A: The value was “(28%)”.

Q: And the “Phage Recovered from LLC tumors (Frequency)” value ([1]; Experiment B)?
A: Its value is “(14%)”.

Q: What about the “Phage Recovered from LLC tumors” value ([1]; Experiment B, number of sequenced phage) of the same substance?
A: Its value is 2.

Q: What about the “Radiation-induced increase in phage binding in tumor” value [8] of the same substance?
A: The value was 4 fold.

Q: What about the “Tumor models within which the phage-encoded peptide bound” value [3] of the same substance?
A: The value was “bound within the melanoma, lung carcinoma, and glioma tumor models”.

Q: And the “Phage Recovered from GL261 tumors” value [5]?
A: Its value is 2.

Q: What about the “Phage Recovered from GL261 tumors (Frequency)” value [5] of the same substance?
A: The value was “(8%)”.

Q: What about the “Radiolabeled peptide bound in tumors” value ([9]; tumors treated with 2 Gy alone) of the same substance?
A: The value was 10%.

Q: What about the “Radiolabeled peptide bound in tumors” value ([9]; tumors treated with 10 Gy) of the same substance?
A: The value was 89%.

Q: What about the “Radiolabeled peptide bound in tumors” value ([9]; tumors treated with SU11248 alone) of the same substance?
A: The value was 9%.

Q: And the “Radiolabeled peptide bound in tumors” value ([9]; tumors treated with SU11248 and 2 Gy)?
A: Its value is 91%.

Q: And the “Radiolabeled peptide bound in tumors” value ([9]; untreated control tumors (tumors about 8% of body weight))?
A: Its value is 8%.

Reference: patent publication US20100135905A1, “ASSESSMENT OF CANCER SUSCEPTIBILITY TO MOLECULAR TARGETED THERAPY BY USE OF RECOMBINANT PEPTIDES” (priority 2004, published 2010)
